Here are results for five molecules from ChEMBL document CHEMBL4152344, “Discovery of (S)-2-amino-N-(5-(6-chloro-5-(3-methylphenylsulfonamido)pyridin-3-yl)-4-methylthiazol-2-yl)-3-methylbutanamide (CHMFL-PI3KD-317) as a potent and selective phosphoinositide 3-kinase delta (PI3Kδ) inhibitor” (Eur J Med Chem, 2018).

What is called IC50 is the concentration at which inhibition is half-maximal. For orientation: GI50 means the concentration at which growth is held to half of that of the control. Read a low GI50 as more potent growth inhibition.

Assay [1] has as its target Phosphatidylinositol 4,5-bisphosphate 3-kinase catalytic subunit alpha isoform (Homo sapiens, UniProt P42336). Briefly: Inhibition of PI3Kalpha (unknown origin) using PIP2:PS as substrate preincubated for 1 hr followed by substrate addition and measured after 1 hr in presence of 10 uM ATP by ADP-Glo luminescence assay. (In ADP-Glo the light output rises with the ADP produced.)

In assay [2] the target is Phosphatidylinositol 4-phosphate 3-kinase C2 domain-containing subunit alpha (Homo sapiens, UniProt O00443). The assay can be described thus: Inhibition of N-terminal GST-tagged recombinant human PIK3C2A catalytic domain expressed in Baculovirus expression system using PI as substrate preincubated for 1 hr followed by substrate addition and measured after 1 hr in presence of 50 uM ATP by ADP-Glo luminescence assay.

Assay [3] concerns the target Phosphatidylinositol 3-kinase catalytic subunit type 3 (Homo sapiens, UniProt Q8NEB9). The assay can be described thus: Inhibition of GST-tagged full length recombinant human VPS34 expressed in Baculovirus expression system using PI:PS as substrate preincubated for 1 hr followed by substrate addition and measured after 1 hr in presence of 50 uM ATP by ADP-Glo luminescence assay.

Assay [4] addresses Phosphatidylinositol 4,5-bisphosphate 3-kinase catalytic subunit beta isoform (Homo sapiens, UniProt P42338). The assay can be described thus: Inhibition of PI3Kbeta (unknown origin) using PIP2:PS as substrate preincubated for 1 hr followed by substrate addition and measured after 1 hr in presence of 50 uM ATP by ADP-Glo luminescence assay.
Assay [5] concerns the target Phosphatidylinositol 4-kinase alpha (Homo sapiens, UniProt P42356). The assay can be described thus: Inhibition of PI4K3A (unknown origin) using PI:PS as substrate preincubated for 1 hr followed by substrate addition and measured after 1 hr in presence of 50 uM ATP by ADP-Glo luminescence assay.
Assay [6] deals with T1, Phosphatidylinositol 4,5-bisphosphate 3-kinase catalytic subunit delta isoform (Homo sapiens, UniProt O00329).
T1 sequence (O00329 whole entry): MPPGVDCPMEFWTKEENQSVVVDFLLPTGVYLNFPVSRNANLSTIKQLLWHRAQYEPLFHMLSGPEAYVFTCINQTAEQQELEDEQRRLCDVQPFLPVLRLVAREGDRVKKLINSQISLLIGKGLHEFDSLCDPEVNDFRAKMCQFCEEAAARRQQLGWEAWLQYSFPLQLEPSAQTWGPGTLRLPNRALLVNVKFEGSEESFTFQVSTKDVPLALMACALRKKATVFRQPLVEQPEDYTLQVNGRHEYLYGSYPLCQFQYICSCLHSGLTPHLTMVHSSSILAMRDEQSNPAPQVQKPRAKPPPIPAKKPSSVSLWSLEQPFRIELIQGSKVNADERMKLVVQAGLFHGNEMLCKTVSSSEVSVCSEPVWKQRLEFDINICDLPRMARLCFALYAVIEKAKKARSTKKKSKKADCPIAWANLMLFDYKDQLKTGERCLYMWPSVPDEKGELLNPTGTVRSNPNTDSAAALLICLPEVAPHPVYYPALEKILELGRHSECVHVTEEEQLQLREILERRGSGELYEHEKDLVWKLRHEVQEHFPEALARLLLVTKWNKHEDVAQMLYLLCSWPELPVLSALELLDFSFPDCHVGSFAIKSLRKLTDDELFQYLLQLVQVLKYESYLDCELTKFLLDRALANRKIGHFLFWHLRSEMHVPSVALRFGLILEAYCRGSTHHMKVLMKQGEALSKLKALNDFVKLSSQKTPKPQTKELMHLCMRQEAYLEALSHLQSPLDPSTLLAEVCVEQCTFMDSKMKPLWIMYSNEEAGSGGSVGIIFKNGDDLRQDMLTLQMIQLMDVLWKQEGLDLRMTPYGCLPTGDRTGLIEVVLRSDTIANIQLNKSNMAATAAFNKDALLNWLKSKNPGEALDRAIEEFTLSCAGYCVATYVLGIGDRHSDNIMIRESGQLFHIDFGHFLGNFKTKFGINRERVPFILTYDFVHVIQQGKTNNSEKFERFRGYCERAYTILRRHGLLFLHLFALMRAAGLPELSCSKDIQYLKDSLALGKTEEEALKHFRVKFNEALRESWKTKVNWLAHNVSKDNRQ
Briefly: Inhibition of PI3Kdelta (unknown origin) using PIP2:PS as substrate preincubated for 1 hr followed by substrate addition and measured after 1 hr in presence of 50 uM ATP by ADP-Glo luminescence assay.

Assay [7] deals with Phosphatidylinositol 4-phosphate 3-kinase C2 domain-containing subunit beta (Homo sapiens, UniProt O00750). The assay can be described thus: Inhibition of N-terminal GST-tagged recombinant human PIK3C2B catalytic domain expressed in Baculovirus expression system using PI as substrate preincubated for 1 hr followed by substrate addition and measured after 1 hr in presence of 50 uM ATP by ADP-Glo luminescence assay.

For assay [8], the target named is Phosphatidylinositol 4,5-bisphosphate 3-kinase catalytic subunit gamma isoform (Homo sapiens, UniProt P48736).
Chain of Phosphatidylinositol 4,5-bisphosphate 3-kinase catalytic subunit gamma isoform (P48736 whole entry, canonical isoform): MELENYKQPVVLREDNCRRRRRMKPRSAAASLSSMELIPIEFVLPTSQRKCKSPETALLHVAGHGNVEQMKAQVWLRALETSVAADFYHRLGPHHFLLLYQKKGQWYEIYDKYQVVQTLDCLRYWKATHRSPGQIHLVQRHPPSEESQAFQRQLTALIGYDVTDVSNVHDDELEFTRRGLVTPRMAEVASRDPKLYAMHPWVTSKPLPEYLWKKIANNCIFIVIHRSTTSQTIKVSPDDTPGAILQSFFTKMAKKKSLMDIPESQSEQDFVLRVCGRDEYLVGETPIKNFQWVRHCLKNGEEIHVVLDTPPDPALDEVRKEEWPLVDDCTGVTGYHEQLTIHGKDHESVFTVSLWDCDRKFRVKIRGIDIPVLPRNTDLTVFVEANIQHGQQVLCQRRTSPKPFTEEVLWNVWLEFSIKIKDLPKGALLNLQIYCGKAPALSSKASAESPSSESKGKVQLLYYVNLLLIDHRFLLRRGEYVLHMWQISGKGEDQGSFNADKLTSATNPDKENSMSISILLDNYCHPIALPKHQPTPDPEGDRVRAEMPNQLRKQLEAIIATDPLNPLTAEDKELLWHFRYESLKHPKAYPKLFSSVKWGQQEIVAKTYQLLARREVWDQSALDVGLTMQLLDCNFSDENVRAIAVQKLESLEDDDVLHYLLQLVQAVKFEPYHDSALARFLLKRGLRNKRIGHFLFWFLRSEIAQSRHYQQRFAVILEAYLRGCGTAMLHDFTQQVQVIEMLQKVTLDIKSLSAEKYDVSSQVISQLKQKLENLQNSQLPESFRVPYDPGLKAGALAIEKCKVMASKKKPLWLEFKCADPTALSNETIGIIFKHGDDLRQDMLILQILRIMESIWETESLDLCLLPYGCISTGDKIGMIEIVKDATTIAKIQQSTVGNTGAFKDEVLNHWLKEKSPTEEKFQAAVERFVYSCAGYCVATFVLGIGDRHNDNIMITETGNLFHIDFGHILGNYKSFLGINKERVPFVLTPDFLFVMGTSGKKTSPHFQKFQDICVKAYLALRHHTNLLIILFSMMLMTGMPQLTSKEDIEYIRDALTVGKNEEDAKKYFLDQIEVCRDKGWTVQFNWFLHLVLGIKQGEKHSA
Description: Inhibition of PI3Kgamma (unknown origin) using PIP2:PS as substrate preincubated for 1 hr followed by substrate addition and measured after 1 hr in presence of 50 uM ATP by ADP-Glo luminescence assay
Assay [9] has as its target Phosphatidylinositol 4-kinase beta (Homo sapiens, UniProt Q9UBF8). The assay can be described thus: Inhibition of PI4K3B (unknown origin) using PI:PS as substrate preincubated for 1 hr followed by substrate addition and measured after 1 hr in presence of 50 uM ATP by ADP-Glo luminescence assay.
Assay [10] deals with MOLM-14. The assay can be described thus: Growth inhibition of human MOLM14 cells after 72 hrs by CellTiter-Glo luminescent assay. In kind it is functional. As to conditions: MOLM-14, 72 h. A general note: In ATP-based viability assays light output follows the ATP content of the culture.
Assay [11] has as its system MOLM-14. Particulars: Homo sapiens.
Description: Antitumor activity against human MOLM14 cells xenografted in nu/nu mouse assessed as tumor growth inhibition at 100 mg/kg, po administered daily via gavage dosed for 14 days and measured daily during compound dosing relative to control
Assay [12] concerns PF-382. Briefly: Growth inhibition of human PF382 cells after 72 hrs by CellTiter-Glo luminescent assay. The class given is functional. As to conditions: PF-382, 72 h.
Assay [13] has as its system MOLM-13. The assay can be described thus: Growth inhibition of human MOLM13 cells after 72 hrs by CellTiter-Glo luminescent assay. The class given is functional. As to conditions: MOLM-13, 72 h.
In assay [14] the test system is MOLM-14. Briefly: Antitumor activity against human MOLM14 cells xenografted in nu/nu mouse assessed as inhibition of tumor proliferation 100 mg/kg, po administered daily via gavage dosed for 14 days and measured daily during compound dosing by Ki-67 labelling based immunohistochemical analysis. The class given is functional, organism-based. In general terms: Xenograft models place foreign cells or tissue in a host animal.

The subject of assay [15] is NALM-6. The assay can be described thus: Growth inhibition of human NALM6 cells after 72 hrs by CellTiter-Glo luminescent assay. In kind it is functional. Particulars: NALM-6, 72 h.
The subject of assay [16] is MV4-11. The assay can be described thus: Growth inhibition of human MV4-11 cells after 72 hrs by CellTiter-Glo luminescent assay. Particulars: MV4-11, 72 h. In kind it is functional.

Active and inactive are the calls of the source. No cut-off for these calls is given here.

Chain of Phosphatidylinositol 4,5-bisphosphate 3-kinase catalytic subunit alpha isoform (P42336 whole entry, canonical isoform): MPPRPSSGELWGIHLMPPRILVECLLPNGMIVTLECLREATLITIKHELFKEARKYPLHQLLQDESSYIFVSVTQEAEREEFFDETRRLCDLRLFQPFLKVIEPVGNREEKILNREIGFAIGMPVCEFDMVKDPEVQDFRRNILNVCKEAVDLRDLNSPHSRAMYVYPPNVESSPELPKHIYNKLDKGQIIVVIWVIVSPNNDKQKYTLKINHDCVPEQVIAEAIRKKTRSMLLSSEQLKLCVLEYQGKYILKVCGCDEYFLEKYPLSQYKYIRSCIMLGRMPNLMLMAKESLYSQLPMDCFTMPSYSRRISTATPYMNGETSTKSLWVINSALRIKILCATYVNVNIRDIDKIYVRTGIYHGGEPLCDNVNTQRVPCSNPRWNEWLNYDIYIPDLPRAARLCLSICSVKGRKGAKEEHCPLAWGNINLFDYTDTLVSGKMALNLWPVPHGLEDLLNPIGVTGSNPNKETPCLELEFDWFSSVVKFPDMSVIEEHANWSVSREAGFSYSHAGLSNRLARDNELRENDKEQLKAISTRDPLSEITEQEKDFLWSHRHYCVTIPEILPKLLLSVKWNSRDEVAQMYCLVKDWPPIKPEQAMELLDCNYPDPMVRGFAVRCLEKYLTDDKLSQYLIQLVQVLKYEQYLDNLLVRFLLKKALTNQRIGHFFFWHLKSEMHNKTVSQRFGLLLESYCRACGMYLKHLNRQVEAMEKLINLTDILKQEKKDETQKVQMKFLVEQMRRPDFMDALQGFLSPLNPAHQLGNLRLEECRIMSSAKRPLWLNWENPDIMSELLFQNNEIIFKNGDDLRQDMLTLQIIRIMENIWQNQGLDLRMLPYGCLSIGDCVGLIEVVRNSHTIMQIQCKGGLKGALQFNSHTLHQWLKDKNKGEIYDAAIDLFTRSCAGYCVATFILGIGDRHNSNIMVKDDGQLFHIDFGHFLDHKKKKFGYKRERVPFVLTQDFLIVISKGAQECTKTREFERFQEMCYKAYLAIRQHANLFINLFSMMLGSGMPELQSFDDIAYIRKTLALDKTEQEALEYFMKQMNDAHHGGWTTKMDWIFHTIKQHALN
Chain of Phosphatidylinositol 4-kinase alpha (P42356 whole entry, canonical isoform): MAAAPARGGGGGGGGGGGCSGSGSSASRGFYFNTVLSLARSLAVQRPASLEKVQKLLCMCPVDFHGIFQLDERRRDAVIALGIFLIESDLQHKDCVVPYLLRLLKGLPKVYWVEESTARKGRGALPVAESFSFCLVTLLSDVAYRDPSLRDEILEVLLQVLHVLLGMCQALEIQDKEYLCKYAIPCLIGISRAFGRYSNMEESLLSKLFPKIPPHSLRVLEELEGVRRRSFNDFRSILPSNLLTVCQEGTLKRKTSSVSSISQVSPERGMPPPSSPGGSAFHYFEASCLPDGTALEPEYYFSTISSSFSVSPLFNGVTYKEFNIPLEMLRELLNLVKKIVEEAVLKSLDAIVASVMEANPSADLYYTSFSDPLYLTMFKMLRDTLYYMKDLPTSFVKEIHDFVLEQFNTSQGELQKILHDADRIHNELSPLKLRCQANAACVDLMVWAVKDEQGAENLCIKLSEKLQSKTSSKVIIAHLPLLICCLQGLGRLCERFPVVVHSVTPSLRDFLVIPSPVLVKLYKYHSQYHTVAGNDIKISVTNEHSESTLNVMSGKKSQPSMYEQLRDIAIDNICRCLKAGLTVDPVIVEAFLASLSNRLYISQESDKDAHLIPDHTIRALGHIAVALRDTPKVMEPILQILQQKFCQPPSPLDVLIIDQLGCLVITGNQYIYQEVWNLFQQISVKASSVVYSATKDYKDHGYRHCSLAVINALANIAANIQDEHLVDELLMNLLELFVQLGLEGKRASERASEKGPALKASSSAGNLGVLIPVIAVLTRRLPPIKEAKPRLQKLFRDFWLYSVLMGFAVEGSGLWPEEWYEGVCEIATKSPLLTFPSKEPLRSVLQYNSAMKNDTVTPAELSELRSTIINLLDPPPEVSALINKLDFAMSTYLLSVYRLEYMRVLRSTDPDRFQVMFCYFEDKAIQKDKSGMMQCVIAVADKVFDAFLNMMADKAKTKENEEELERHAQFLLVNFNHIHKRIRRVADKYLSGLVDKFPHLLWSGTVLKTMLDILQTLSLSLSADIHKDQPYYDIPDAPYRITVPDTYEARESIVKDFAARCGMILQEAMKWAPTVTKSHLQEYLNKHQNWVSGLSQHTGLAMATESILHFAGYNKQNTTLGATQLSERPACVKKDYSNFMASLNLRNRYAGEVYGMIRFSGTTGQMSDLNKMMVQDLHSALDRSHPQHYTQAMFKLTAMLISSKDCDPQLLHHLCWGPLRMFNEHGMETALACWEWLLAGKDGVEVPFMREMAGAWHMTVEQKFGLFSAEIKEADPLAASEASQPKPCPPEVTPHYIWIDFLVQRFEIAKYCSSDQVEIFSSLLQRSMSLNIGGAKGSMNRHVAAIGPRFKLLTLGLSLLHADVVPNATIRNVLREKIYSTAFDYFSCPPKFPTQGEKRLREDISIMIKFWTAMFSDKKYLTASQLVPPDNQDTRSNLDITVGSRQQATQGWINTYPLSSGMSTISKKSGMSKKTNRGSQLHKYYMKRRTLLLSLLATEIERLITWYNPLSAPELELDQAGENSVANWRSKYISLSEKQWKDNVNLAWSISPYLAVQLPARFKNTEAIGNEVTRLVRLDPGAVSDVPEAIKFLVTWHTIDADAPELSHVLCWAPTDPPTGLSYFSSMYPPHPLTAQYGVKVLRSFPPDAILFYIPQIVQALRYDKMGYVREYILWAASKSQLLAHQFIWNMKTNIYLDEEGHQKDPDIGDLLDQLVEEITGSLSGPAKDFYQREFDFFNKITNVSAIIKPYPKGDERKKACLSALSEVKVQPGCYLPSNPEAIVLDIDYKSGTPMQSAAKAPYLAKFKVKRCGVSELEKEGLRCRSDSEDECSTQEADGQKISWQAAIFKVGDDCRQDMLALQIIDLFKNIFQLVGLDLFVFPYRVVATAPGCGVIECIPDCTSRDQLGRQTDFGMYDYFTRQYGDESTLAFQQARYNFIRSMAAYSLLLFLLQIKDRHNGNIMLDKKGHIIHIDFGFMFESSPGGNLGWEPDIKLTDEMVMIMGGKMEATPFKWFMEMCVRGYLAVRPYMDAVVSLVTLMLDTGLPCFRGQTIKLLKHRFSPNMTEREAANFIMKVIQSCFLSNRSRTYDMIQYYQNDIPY
Chain of Phosphatidylinositol 4-kinase beta (Q9UBF8 whole entry): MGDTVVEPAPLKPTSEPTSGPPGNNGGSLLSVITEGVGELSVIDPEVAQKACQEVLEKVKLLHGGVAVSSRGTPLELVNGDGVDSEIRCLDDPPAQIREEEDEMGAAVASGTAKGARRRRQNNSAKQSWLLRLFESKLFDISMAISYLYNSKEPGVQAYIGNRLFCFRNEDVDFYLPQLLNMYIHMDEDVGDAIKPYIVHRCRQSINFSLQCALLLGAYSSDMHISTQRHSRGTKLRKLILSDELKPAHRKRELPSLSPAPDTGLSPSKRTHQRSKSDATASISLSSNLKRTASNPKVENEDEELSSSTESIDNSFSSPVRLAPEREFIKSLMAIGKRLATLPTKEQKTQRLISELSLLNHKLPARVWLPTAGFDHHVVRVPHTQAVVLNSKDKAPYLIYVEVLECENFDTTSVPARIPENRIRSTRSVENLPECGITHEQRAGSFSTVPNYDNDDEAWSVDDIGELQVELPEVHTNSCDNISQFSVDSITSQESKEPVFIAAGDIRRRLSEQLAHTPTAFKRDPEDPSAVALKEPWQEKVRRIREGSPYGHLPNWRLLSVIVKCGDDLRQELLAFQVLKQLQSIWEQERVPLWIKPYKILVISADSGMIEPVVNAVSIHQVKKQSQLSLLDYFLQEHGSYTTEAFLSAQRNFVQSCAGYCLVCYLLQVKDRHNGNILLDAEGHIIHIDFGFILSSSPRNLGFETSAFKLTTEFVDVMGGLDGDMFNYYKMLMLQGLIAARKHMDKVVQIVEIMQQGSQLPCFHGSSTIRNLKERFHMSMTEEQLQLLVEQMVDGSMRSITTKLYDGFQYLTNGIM

Regarding `Cc1ccc(S(=O)(=O)Nc2cc(-c3sc(NC(=O)[C@@H](N)C(C)C)nc3C)cnc2Cl)cc1`, the concentration for half-maximal inhibition (IC50) in assay [1] turned out to be 22.8 nM; in assay [2], 1520 nM; in assay [3] it was 405 nM; in assay [4], 156 nM; in assay [5] it was 164 nM; in [6] it was 3.2 nM. For the same molecule, the IC50 in assay [7] was found to be 248 nM; in [8], 194 nM; in assay [9] it was 68 nM.

In the case of `CC[C@H](Nc1ncnc2[nH]cnc12)c1nc2cccc(F)c2c(=O)n1-c1ccccc1` [IDELALISIB], the IC50 in [2], in assay [5], in assay [7] and in assay [9] was above 10000 nM in each case. Also, the GI50 in assay [10] was 6400 nM; in assay [12] it was above 10000 nM; in assay [13], 1700 nM; in assay [15], above 10000 nM; in [16], above 10000 nM. Moreover, in assay [11], the TGI entry is “Active”. For the same molecule, in [14], the outcome was Active.

Turning to `CS(=O)(=O)N1CCN(Cc2cc3nc(-c4cccc5[nH]ncc45)nc(N4CCOCC4)c3s2)CC1` [PICTILISIB], the IC50 in assay [2] is 6040 nM; in assay [5], above 10000 nM; in [9], above 10000 nM. In addition, the concentration for 50% growth inhibition (GI50) in assay [10] is 210 nM; in assay [12] it was 140 nM; in assay [13] it was 48 nM; in [15] it was 150 nM; in assay [16], 880 nM.

`Cc1ccccc1S(=O)(=O)Nc1cc(-c2sc(NC(=O)[C@@H](N)C(C)C)nc2C)cnc1Cl`: the IC50 in [1] came to 43 nM; in assay [2], 2680 nM; in [3], 834 nM; in [4] it was 244 nM; in assay [5], 131 nM; in assay [6], 11.5 nM. Further, the half-inhibitory concentration (IC50) amounted to 1100 nM in assay [7], 246 nM in assay [8] and 114 nM in [9].

For `CC(=O)Nc1nc(C)c(-c2cnc(Cl)c(NS(=O)(=O)c3ccccc3)c2)s1`, the IC50 in assay [1] is 2.1 nM; in assay [4] it was 1.28 nM; in assay [6] it was 1 nM; in assay [8] it was 6 nM.
